Data published in patent US12605403B2, “Compositions and methods for treating transient biofilms” (WIAB WATER INNOVATION AB, priority 2016, dated 2026).

Experiments:
Escherichia coli = assay: hand disinfection test, transient bacteria on hands of subjects (Handrub procedure PN-EN 1500:2013-07); assay type: in vivo; details: 18 subjects, E. coli on hands, hand rub
Description: Tests were performed on the hands of healthy subjects to determine the transient bacteria killing effect of the disclosed compositions. The subjects washed their hands, and dipped their fingertips into Escherichia coli. The disclosed compositions were applied to the subjects' hands by rubbing the disclosed compositions into the skin to stimulate the removal of the transient bacteria on the skin. The same test was performed using prior art alcohol compositions.
Tests were performed on the hands of healthy subjects to determine the transient bacteria killing effect of the disclosed compositions.
In this experiment, 18 subjects washed their hands, and dipped their fingertips into a solution of Escherichia coli. Once the subjects' hands were dry, aliquots of the disclosed composition (5 mL of 160 ppm HOCl, 0.13% Hac) were applied to the subjects' dry hands and rubbed into the skin for 30 to stimulate the removal of the transient bacteria on the skin, according to Handrub procedure PN-EN 1500:2013-07.

natural bacteria = assay: hand and forearm rub test, effect on natural bacteria of the skin (Handrub procedure PN-EN 12791:2005); assay type: in vivo; details: hands of 20 subjects
Description: In another experiment aliquots of the disclosed composition (3 mL of 0.03% HOCl, 0.13% Hac) were applied to each of the hands of 20 subjects. […] The composition was rubbed into the hands and forearms for 5 minutes to maintain exposure to the compositions according to Handrub procedure PN-EN 12791:2005.
Bacteria kills of Escherichia coli, Pseudomonas aeruginosa, Staphylococcus areus, and Enterococcus hirae were measured immediately after the application and again 3 hours after application.

SMILES | reduction of the presence of the transient bacteria (Escherichia coli) [log] | reduction of the natural bacteria (natural bacteria; 3 hours after application) [log] | reduction of the natural bacteria (natural bacteria; immediately after application) [log]
CC(C)O [2-propanol 60% v/v, 2-propanol] | 4 | – | –
CCCO [propan-1-ol, 60% v/v, propan-1-ol] | – | 2.16 | 2.48
